Laboratory results reported in publication PMC7238976 (Phytochemistry, 2020).
Read-outs that look alike come from different tables or passages of the source.

How the values were obtained:
[1] = system: HL4–3 virus; assay: Anti-HIV-1 activity against HL4–3 virus in MT4 cells; assay type: cell-based
[2] = system: MT4 cells; assay: Cytotoxicity toward MT4 cells; assay type: cell-based; conditions: read-out: Cytotoxicity CC50, means, n = 3
[3] = system: HIV; conditions: read-out: Anti-HIV IC50 (literature); ref Olivon, et al., 2017; cited from earlier work
[4] = Cytotoxicity toward MT4 cells; assay type: cell-based; conditions: human
[5] = read-out: Anti-HIV-1 IC50, HL4–3 virus in MT4 cells, means, n = 3

Compound | IC50 [1, 5] [nM] | CC50 [2] [nM] | further results
Crotignoid Q [Compound 6] | > 1900 | > 1900 | Anti-HIV activity (in words) ([1]; HL4–3 virus in MT4 cells): did not show anti-HIV activity
CCCCCCCCCCCCCCCC(=O)O[C@@]12C[C@@H](C)[C@@]3(O)[C@H]([C@@H]1C2(C)C)[C@H](O)[C@](O)(CO)[C@@H](O)[C@]1(O)C(=O)C(C)=C[C@H]13 [12-deoxy-5β-6β-7α-trihydroxy-phorbol-13-hexadecanoate] | – | – | IC50 [3]: 257 nM
Crotignoid P [Compound 5] | 100 | > 1600 | –
Crotignoid N [Compound 3] | 310 | > 1600 | –
Cc1cn([C@H]2C[C@H](N=[N+]=[N-])[C@@H](CO)O2)c(=O)[nH]c1=O [AZT, zidovudine, reference compound] | – | – | IC50 ([1]; Human immunodeficiency virus 1, MT4, read-out: Anti-HIV-1 IC50): 18.7 nM; Selectivity index SI ([1]; ratio of CC50 and anti-HIV IC50): > 20; CC50 [4]: > 370 nM
CCCCCCCCCCCCCC(=O)O[C@@]12C[C@@H](C)[C@@]3(O)[C@@H](C=C(CO)C[C@]4(O)C(=O)C(C)=C[C@@H]34)[C@@H]1C2(C)C [Compound 8, 12-deoxyphorbol-13-myristate] | 22 | > 1800 | –
Crotignoid M [Compound 2] | 38 | > 1700 | –
Crotignoid O [Compound 4] | 4030 | > 1800 | –
Crotignoid L [Compound 1] | 220 | > 1800 | –
CCCCCCCCCCCCCCCC(=O)O[C@@]12C[C@@H](C)[C@]3(O)[C@@H]4C=C(C)C(=O)[C@@]4(O)[C@H](O)C(CO)=C[C@H]3[C@@H]1C2(C)C [12-deoxy-5β-hydroxy-phorbol-13-hexadecanoate] | – | – | IC50 [3]: 2 nM
CCCCCCCCCCCCCCCC(=O)O[C@@]12C[C@@H](C)[C@@]3(O)[C@@H](C=C(CO)C[C@]4(O)C(=O)C(C)=C[C@@H]34)[C@@H]1C2(C)C [Compound 7, 12-deoxyphorbol-13-hexadecanoate] | 2.3 | > 1700 | –
